# Data published in the SangsterLogP compilation.
# Residues, ends and D or L forms follow the SMILES beside them. *: point of attachment. NHtBu = CC(C)(C)N*
# Test: not given
# Conditions: not given
row,logP,Structure (SMILES)
1,3.72,CCC(=O)OC(C(=O)NC12CC3CC(CC(C3)C1)C2)c1ccccc1 (configuration not stated)
2,3.28,CC(=O)OC(C(=O)ON=C1C2CC3CC(C2)CC1C3)c1ccccc1 (configuration not stated)
3,3.21,CC(=O)OC(C(=O)NC12CC3CC(CC(C3)C1)C2)c1ccccc1 (configuration not stated)
4,4.64,CC(=O)C(C(=O)ON=C(C)C12CC3CC(CC(C3)C1)C2)c1ccccc1 (configuration not stated)

# Test: not given
# Conditions: not given
# Remark: another data set of the same source
row,logP,Structure (SMILES)
1,2.26,COc1ccc(N2C(=O)CN(Cc3c(C(=O)O)[nH]c4cc(Cl)cc(Cl)c34)C2=O)cc1
2,2.07,O=C(O)c1[nH]c2cc(Cl)cc(Cl)c2c1CN1CC(=O)N(c2ccc(OCCF)cc2)C1=O
3,1.51,O=C(O)c1[nH]c2cc(Cl)cc(Cl)c2c1CN1CC(=O)N(c2ccccc2OCCF)C1=O
4,2.53,O=C(O)c1[nH]c2cc(Cl)cc(Cl)c2c1CN1CC(=O)N(c2ccc(OCCF)c(Cl)c2)C1=O

# Test: not given
# Conditions: not given
# Remark: another data set of the same source
row,logP,Structure (SMILES)
1,2.43,CCC1ON=C(C)C1N=C1C=C(OC)C(=O)c2ccccc21 (configuration not stated)
2,2.71,CCc1onc(C)c1N=C1C=C(Nc2c(C)noc2CC)C(=O)c2ccccc21
3,2,CCc1onc(C)c1N=C1C=C(O)C(=O)c2ccccc21
4,2.52,CCCc1onc(C)c1N=C1C=C(O)C(=O)c2ccccc21

# Test: method code SF-AS, from PMID: 5136171
# Conditions: not given
row,logP,Structure (SMILES)
1,1.84,CCOC(=O)c1cnc2cc(OCCOC)c(OCC(C)C)cc2c1O
2,1.7,CCCOc1cc2c(O)c(C(=O)OCC)cnc2cc1OCCOC
3,1.86,CCOC(=O)c1cnc2cc(OCCOC)c(OC(C)C)cc2c1O
4,1.72,CCCCOc1cc2c(O)c(C(=O)OCC)cnc2cc1OCCOC

# Test: not given
# Conditions: not given
# Remark: another data set of the same source
row,logP,Structure (SMILES)
1,4.71,O=C1c2c(O)cccc2C(C(=O)Cc2ccc3ccccc3c2)c2cccc(O)c21
2,4.6,O=C1c2c(O)cccc2C(C(=O)C(c2ccccc2)c2ccccc2)c2cccc(O)c21
3,4.97,O=C1c2c(O)cccc2C(C(=O)CC2CCCCC2)c2cccc(O)c21
4,4.61,O=C1c2c(O)cccc2C(C(=O)Cc2cccc3ccccc23)c2cccc(O)c21

# Test: not given
# Conditions: not given
# Remark: another data set of the same source
row,Structure (SMILES),logP
1,Cc1cccc2c1OP(=O)(OCC1OC(n3cc(C=CBr)c(=O)[nH]c3=O)CC1OC(=O)C(C)(C)C)OC2 (configuration not stated),3
2,CCCCCC(=O)OC1CC(n2cc(C=CBr)c(=O)[nH]c2=O)OC1COP1(=O)OCc2cccc(C)c2O1 (configuration not stated),2.6
3,CCCCCCCCCC(=O)OC1CC(n2cc(C=CBr)c(=O)[nH]c2=O)OC1COP1(=O)OCc2cccc(C)c2O1 (configuration not stated),2.8
4,CCC(=O)OC1CC(n2cc(C=CBr)c(=O)[nH]c2=O)OC1COP1(=O)OCc2cccc(C)c2O1 (configuration not stated),2.3

# Test: not given
# Conditions: not given
# Remark: another data set of the same source
row,Structure (SMILES),logP
1,CCCCC(c1c(O)c2ccccc2oc1=O)c1c(O)c2ccccc2oc1=O,2.69
2,CC(c1c(O)c2ccccc2oc1=O)c1c(O)c2ccccc2oc1=O,0.43
3,CCCC(c1c(O)c2ccccc2oc1=O)c1c(O)c2ccccc2oc1=O,2.31
4,O=c1oc2ccccc2c(O)c1Cc1c(O)c2ccccc2oc1=O,1.83

# Test: not given
# Conditions: not given
# Remark: another data set of the same source
row,logP,Structure (SMILES)
1,3.65,COc1nc(C)ncc1OCC1(c2cccc(F)c2)CC1C(=O)Nc1ccc(F)cn1 (configuration not stated)
2,4.98,COc1ccccc1C(=O)N1CCCN(c2nc3ccc(Cl)cc3s2)CC1
3,3.2,COc1ccc(CNC(=O)c2cc(-c3cncc(Cl)c3)cnc2-c2ccccn2)nc1OC
4,3.79,Cn1c(CCC(=O)N2CCC[C@H]2C(=O)Nc2ccccc2-c2ccccc2)nc2ccccc21

# Test: not given
# Conditions: not given
# Remark: another data set of the same source
row,logP,Structure (SMILES)
1,1.73,NS(=O)(=O)c1cc2c(cc1Cl)N=C(CSCc1ccccc1)NS2(=O)=O
2,3.56,CCCCOc1ccc(OCCCN2CCOCC2)cc1
3,5.7,COc1ccc(CCN2CCC(Nc3nc4ccccc4n3Cc3ccc(F)cc3)CC2)cc1
4,4.3,CNC1CCC(c2ccc(Cl)c(Cl)c2)c2ccccc21 (configuration not stated)

# Test: not given
# Conditions: not given
# Remark: another data set of the same source
row,Structure (SMILES),logP
1,CCCCCCCCCCCCOC(=O)N(C)SN(C)C(=O)Oc1ccc2c(c1)OCO2,7.39
2,CCCCCCCCOC(=O)N(C)SN(C)C(=O)Oc1ccc2c(c1)OCO2,4.67
3,CCCCCCCCCCCCCCCCOC(=O)N(C)SN(C)C(=O)Oc1ccc2c(c1)OCO2,10.5
4,CC(C)Oc1ccccc1OC(=O)N(C)SN(C)C(=O)Oc1ccc2c(c1)OCO2,2.7

# Test: not given
# Conditions: not given
# Remark: another data set of the same source
row,logP,Structure (SMILES)
1,5.18,CC1=C(C(=O)OC(C)C)C(c2cccc([N+](=O)[O-])c2)C(C(=O)OC2CN(C(c3ccccc3)c3ccccc3)C2)=C(N)N1 (configuration not stated)
2,3.65,CCOC(=O)C1=C(C)NC(C)=C(C(=O)OC)C1c1cccc(Cl)c1Cl (configuration not stated)
3,2.88,CCOC(=O)C1=C(C)NC(C)=C(C(=O)OC)C1c1cccc([N+](=O)[O-])c1 (configuration not stated)
4,4.26,COC(=O)C1=C(C)NC(C)=C(C(=O)OC/C=C/c2ccccc2)C1c1cccc([N+](=O)[O-])c1 (configuration not stated)

# Test: method code SF-AS, from DOI: 10.1248/cpb.26.2832
# Conditions: not given
row,logP,Structure (SMILES)
1,2.4,CC(=O)OCC(=O)[C@@]1(O)CC[C@H]2[C@@H]3CCC4=CC(=O)C=C[C@]4(C)[C@H]3[C@@H](O)C[C@@]21C
2,3.49,CCCCC(=O)OC1(C(=O)CO)C(C)CC2C3CCC4=CC(=O)C=CC4(C)C3(F)C(O)CC21C (configuration not stated)
3,2.1,CC(=O)OCC(=O)[C@@]1(O)CC[C@H]2[C@@H]3CCC4=CC(=O)CC[C@]4(C)[C@H]3C(=O)C[C@@]21C
4,1.92,CC(=O)OCC(=O)[C@@]1(O)[C@H](OC(C)=O)C[C@H]2[C@@H]3CCC4=CC(=O)C=C[C@]4(C)[C@@]3(F)[C@@H](O)C[C@@]21C

# Test: method code SF-AS, from DOI: 10.1039/p29900001191
# Conditions: pH 12.0
row,logD,Structure (SMILES)
1,1.86,NC(=O)c1cc(-c2ccccc2)nnc1NCCN1CCOCC1
2,2.53,CCc1cc(-c2ccccc2)nnc1NCCN1CCOCC1
3,2.03,Cc1cc(-c2ccccc2)nnc1NCCN1CCOCC1
4,3.38,c1ccc(-c2cc(-c3ccccc3)c(NCCN3CCOCC3)nn2)cc1

# Test: method code SF-AS, from DOI: 10.1135/cccc19881862
# Conditions: pH 3.4
row,logD,Structure (SMILES)
1,2.6,O=C(O)C(OCc1ccc(Cl)cc1)c1ccccc1 (configuration not stated)

# Test: method code SF, from DOI: 10.1097/00004424-199009001-00048
# Conditions: pH 7.4
row,logD,Structure (SMILES)
1,-2.42,C[C@H](O)C(=O)Nc1c(I)c(C(=O)NC(CO)CO)c(I)c(C(=O)NC(CO)CO)c1I
2,-2.55,O=C(NCC(O)CO)c1c(I)c(N(CCO)C(=O)CO)c(I)c(N(CCO)C(=O)CO)c1I (configuration not stated)
3,-2.64,O=C(NCCO)c1c(I)c(C(=O)NCCO)c(I)c(N(CC(O)CO)C(=O)C(O)CO)c1I (configuration not stated)
4,-2.05,COCC(=O)Nc1c(I)c(C(=O)NCC(O)CO)c(I)c(C(=O)N(C)CC(O)CO)c1I (configuration not stated)

# Test: method code SF, from DOI: 10.1021/jm5019252, PMID: 25906180
# Conditions: pH 7.4
row,Structure (SMILES),logD
1,CN(C(=O)Oc1ccc(O)c(C(=O)NCc2ccccc2)c1)c1ccccc1,4.19
2,COC(=O)c1cc(OC(=O)N(c2ccccc2)c2ccccc2)ccc1O,4.46
3,CN(C(=O)Oc1ccc(O)c(C(=O)NCc2cccnc2)c1)c1ccccc1,2.95
4,COC(=O)c1cc(OC(=O)N(C)c2ccccc2)ccc1O,3.13

# Test: method code SF-AS, from DOI: 10.1021/jm00085a014, PMID: 1560439
# Conditions: pH 7.4
row,logD,Structure (SMILES)
1,1.42,CCc1[nH]c(=O)n(C(C)=O)c1C(=O)c1ccc(-n2ccnc2C)cc1
2,1.72,CCC(=O)n1c(C(=O)c2ccc(-n3ccnc3C)cc2)c(CC)[nH]c1=O
3,1.96,CCc1[nH]c(=O)n(C(=O)c2ccccc2)c1C(=O)c1ccc(-n2ccnc2C)cc1
4,0.85,CCc1[nH]c(=O)[nH]c1C(=O)c1ccc(-n2ccnc2C)cc1

# Test: method code SF-RC, from DOI: 10.1023/a:1015846100305, PMID: 1788157
# Conditions: pH 7.3
row,Structure (SMILES),logD
1,CC(=O)N[C@@H](C)C(=O)N[C@@H](C)C(=O)N[C@@H](C)C(=O)NC(C)(C)C,-0.51
2,CC(=O)NC(C)C(=O)N1CCCC1C(=O)NC(C)C(=O)NC(C)(C)C (stereo not drawn) (Ac-Ala-Pro-Ala-NHtBu; configuration not given here),-0.39

# Next, values leading:
row,logD,Structure (SMILES)
1,1.01,CC(=O)N[C@@H](C)C(=O)N[C@@H](Cc1ccccc1)C(=O)N[C@@H](C)C(=O)NC(C)(C)C (Ac-Ala-Phe-Ala-NHtBu)
2,-0.48,CC(=O)NC(C)C(=O)NC(Cc1c[nH]cn1)C(=O)NC(C)C(=O)NC(C)(C)C (stereo not drawn) (Ac-Ala-His-Ala-NHtBu; configuration not given here)

# Test: method code SF-AS, from DOI: 10.1016/j.ejmech.2015.02.036, PMID: 25728022
# Conditions: pH 7.4
row,logD,Structure (SMILES)
1,1.36,CCCCn1c(C)nc2cc(Nc3nc(N4CCCC4)nc4[nH]cnc34)ccc21
2,2.53,C=CCn1c(C)nc2cc(Nc3nc(N4CCCC4)nc4[nH]cnc34)ccc21
3,1.28,CCCCn1c(C)nc2cc(Nc3nc(Cl)nc4[nH]cnc34)ccc21
4,1.55,C=CCn1c(C)nc2cc(Nc3nc(N4CCCCC4)nc4[nH]cnc34)ccc21

# Test: method code SF-RC, from DOI: 10.1016/s0969-8043(00)00269-4, PMID: 11200881
# Conditions: pH 7.4
row,Structure (SMILES),logD
1,CN1CCc2cc(Cl)c(O)cc2[C@@H](c2ccccc2)C1,2.87
2,COc1ccc(C2CNC(=O)C2)cc1OC1CCCC1 (configuration not stated),2.17

# Now from value to molecule:
row,logD,Structure (SMILES)
1,1.26,CCOC(=O)c1ncn2c1CN(C)C(=O)c1cc(F)ccc1-2
2,1.4,CN1CCc2c(cc(O)c(O)c2Cl)C(c2ccccc2)C1 (configuration not stated)
